One assay deals with T1, HDAC6 (Homo sapiens, UniProt Q9UBN7).
T1 sequence (Q9UBN7 1-1215): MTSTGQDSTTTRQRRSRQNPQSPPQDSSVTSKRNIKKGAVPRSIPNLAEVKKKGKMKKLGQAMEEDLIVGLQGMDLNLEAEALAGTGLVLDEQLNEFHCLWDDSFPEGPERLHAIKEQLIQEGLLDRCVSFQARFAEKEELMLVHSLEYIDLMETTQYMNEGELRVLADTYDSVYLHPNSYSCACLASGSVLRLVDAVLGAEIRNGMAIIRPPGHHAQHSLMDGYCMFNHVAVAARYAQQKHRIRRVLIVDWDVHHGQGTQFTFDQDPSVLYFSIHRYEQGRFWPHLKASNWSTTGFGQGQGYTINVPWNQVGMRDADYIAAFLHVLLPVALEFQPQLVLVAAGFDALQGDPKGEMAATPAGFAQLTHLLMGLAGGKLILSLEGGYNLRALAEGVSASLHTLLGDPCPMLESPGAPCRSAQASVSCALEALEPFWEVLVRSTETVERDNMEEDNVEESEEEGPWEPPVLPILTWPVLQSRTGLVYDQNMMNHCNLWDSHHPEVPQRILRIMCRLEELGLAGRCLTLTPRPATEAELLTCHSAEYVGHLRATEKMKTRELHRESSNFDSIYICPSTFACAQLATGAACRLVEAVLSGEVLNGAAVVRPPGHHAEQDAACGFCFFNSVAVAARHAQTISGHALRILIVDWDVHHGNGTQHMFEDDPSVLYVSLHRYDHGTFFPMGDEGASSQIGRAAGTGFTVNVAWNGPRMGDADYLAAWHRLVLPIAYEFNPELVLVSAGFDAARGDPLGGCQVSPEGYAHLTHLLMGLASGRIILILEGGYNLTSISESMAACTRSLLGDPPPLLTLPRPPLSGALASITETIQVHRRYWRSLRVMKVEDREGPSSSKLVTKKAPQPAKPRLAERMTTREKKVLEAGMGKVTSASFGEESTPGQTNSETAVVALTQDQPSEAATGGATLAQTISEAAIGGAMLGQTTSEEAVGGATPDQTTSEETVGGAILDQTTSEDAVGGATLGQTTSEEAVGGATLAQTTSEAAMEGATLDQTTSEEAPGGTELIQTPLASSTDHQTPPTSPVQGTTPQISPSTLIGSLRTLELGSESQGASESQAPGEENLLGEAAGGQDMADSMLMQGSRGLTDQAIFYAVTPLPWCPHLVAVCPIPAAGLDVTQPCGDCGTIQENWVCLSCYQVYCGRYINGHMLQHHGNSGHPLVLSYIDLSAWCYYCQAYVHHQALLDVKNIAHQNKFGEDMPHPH
Briefly: HDAC6 degradation rescue experiment with PROTAC B4 (62) in MCF-7 cells (western blot). The class given is cell-based. The arrangement: endogenous in cells; host or cells: MCF-7. As to conditions: 20 μM pretreatment 30 min, then 62 (1 or 10 μM) 6 h. In general terms: A western blot detects proteins with antibodies after separation by electrophoresis.

A further assay has as its target T2, HDAC10 (Homo sapiens, UniProt Q969S8).
T2 sequence (Q969S8 1-669): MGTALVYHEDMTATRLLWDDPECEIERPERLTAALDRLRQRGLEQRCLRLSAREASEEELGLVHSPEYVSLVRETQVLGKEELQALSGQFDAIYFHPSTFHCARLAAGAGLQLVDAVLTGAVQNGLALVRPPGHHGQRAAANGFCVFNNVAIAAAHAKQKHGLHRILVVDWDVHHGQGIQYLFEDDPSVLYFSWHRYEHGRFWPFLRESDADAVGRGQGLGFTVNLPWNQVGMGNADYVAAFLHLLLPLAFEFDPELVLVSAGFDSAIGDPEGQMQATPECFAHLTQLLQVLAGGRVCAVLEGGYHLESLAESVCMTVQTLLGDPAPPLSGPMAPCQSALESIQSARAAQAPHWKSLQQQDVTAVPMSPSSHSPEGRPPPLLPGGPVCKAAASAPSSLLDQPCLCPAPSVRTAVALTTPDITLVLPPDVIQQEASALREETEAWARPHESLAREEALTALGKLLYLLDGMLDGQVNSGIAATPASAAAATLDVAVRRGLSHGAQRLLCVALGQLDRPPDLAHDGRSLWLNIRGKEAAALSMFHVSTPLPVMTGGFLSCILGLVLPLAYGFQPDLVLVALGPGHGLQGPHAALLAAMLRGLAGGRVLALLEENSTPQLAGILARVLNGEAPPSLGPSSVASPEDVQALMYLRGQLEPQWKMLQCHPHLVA
In words: HDAC10 continuous fluorescence deacylation assay. The class given is biochemical.

In assay [1] the test system is histone H3 acetylation (marker of HDAC1-3 inhibition). Briefly: Western blot on histone H3 hyperacetylation in MCF-7 cells. As to conditions: 24 h, 10 µM. The class given is cell-based. As to the method:
Western blots on histone H3 hyperacetylation in MCF-7 cells were performed according to a previously published protocol.[72] In brief, MCF-7 were centrifuged (450g, 4 min, 22 °C) and lysed with cell extraction buffer (Thermo Fisher), supplemented with 0.1 mM PMSF, Halt Protease Inhibitor (Thermo Fisher), and Natriumorthovanadat (Thermo Fisher). Precast gels with a polymerization degree of 4–15% were used (Mini-PROTEAN TGX Stain-Free; Bio-Rad Laboratories GmbH, Munich, Germany). Proteins were transferred to Trans-Blot Turbo-PVDF membrane (Bio-Rad). The membrane was blocked with skimmed milk powder in Tris-buffered saline-Tween 20 (with 0.2% Tween 20) for 60 min, followed by three washing cycles of 10 min using Tris-buffered saline-Tween 20. Afterward, membranes were incubated with primary antibodies for ac.-Histon H3 (Cell Signal, rabbit) and GAPDH (Gene Tex, Irvine, USA, mouse) for a total of 60 min at room temperature and then incubated at 4 °C overnight. […] After rinsing of the secondary antibody, membranes were detected using ClarityECL Western Blotting Substrate (Bio-Rad). For quantitative determination, the StainFree technique was employed (Bio-Rad), as well as normalization, against the housekeeping protein GAPDH, which allows the imaging of whole lysates in SDS-PAGE before blotting and normalization against the total protein. […]

Another assay addresses HDAC4 (Homo sapiens, UniProt P56524). In words: HDAC4 continuous fluorescence deacylation assay. The class given is biochemical.
Another assay deals with T3, HDAC3/NcoR2 (Homo sapiens, UniProt O15379).
T3 construct: purchased BPS Bioscience 50003
Briefly: HDAC3 in vitro deacetylation assay (ZMAL). In kind it is biochemical. The note with it: mean ± SD.

A value given as a limit tells only on which side of the number the result lay.

For orientation: IC50 means the concentration at which inhibition is half-maximal. Lower therefore signals greater potency. As usually defined, the inhibition is the drop in the measured response relative to a control, in per cent.

Chain of HDAC4 (P56524 whole entry, species assumed): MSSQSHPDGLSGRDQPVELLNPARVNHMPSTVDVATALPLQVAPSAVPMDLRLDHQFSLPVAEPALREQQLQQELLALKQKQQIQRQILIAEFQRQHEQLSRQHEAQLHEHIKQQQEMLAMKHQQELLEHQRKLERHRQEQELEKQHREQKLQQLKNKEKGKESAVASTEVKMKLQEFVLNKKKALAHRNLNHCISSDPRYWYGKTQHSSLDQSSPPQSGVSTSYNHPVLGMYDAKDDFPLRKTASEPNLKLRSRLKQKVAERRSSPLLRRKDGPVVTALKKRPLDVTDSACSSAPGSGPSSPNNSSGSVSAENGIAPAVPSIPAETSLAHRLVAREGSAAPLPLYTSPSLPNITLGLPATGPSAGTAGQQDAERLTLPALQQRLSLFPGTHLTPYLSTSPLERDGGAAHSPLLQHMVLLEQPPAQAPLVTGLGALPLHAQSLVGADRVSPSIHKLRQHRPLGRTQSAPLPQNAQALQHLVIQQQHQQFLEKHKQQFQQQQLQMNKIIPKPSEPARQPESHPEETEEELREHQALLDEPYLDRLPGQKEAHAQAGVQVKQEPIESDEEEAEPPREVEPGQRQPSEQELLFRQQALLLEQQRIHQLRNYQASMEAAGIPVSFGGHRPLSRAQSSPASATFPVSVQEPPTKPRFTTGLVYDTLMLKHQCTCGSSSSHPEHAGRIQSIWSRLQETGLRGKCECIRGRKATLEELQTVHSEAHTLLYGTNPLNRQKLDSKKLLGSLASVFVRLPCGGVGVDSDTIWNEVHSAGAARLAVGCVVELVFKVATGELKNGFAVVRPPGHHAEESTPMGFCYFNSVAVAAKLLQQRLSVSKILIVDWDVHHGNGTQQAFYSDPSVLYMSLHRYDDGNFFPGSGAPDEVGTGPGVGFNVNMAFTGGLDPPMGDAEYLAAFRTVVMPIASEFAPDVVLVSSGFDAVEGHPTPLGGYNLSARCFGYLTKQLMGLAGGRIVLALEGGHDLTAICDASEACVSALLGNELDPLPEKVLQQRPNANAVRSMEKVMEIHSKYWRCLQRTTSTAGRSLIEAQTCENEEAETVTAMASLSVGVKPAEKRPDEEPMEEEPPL
T3 sequence (O15379 whole entry): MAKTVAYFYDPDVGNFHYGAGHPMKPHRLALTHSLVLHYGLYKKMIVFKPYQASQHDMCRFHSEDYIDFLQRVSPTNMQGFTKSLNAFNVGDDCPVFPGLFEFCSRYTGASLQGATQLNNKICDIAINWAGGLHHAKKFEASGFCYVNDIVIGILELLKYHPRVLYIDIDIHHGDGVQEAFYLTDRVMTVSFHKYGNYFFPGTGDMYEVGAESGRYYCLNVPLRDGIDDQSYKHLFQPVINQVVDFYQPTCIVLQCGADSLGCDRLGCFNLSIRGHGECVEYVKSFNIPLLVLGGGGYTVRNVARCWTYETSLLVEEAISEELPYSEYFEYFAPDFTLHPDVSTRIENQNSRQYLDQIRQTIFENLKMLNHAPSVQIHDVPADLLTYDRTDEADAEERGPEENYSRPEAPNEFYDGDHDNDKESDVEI
T3 sequence (Q9Y618 395-489 partner limits assumed): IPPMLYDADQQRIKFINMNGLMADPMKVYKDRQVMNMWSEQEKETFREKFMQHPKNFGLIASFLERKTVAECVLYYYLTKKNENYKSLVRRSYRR

With `CCCCN(Cc1ccc(C(=O)NO)cc1)C(=O)CCCCn1cc(COc2cccc(Cc3cnc(NC(=O)CSc4nc(C)cc(C)n4)s3)c2)nn1` [Compound 33, 4-((N-Butyl-5-(4-((3-((2-(2-((4,6-dimethylpyrimidin-2-yl)thio)acetamido)thiazol-5-yl)methyl)phenoxy)methyl)-1H-1,2,3-triazol-1-yl)pentanamido)methyl)-N-hydroxybenzamide], the “Rescue of HDAC6 from degradation induced by PROTAC 62” value on HDAC6 is “able to rescue HDAC6 from proteasomal degradation induced by 62”. Moreover, the IC50 is greater than 6 µM at HDAC10, greater than 20 µM against HDAC4 and 2.5 ± 0.2 µM against HDAC3/NcoR2. The inhibition at 6 µM at HDAC10 (@ 6 µM, read-out: HDAC10 percentual inhibition) came to 27%; on HDAC4 (@ 6 µM, read-out: HDAC4 percentual inhibition), 4%. In addition, the inhibition at 20 µM was determined as 64% at HDAC10 (@ 20 μM, read-out: HDAC10 percentual inhibition) and 7% at HDAC4 (@ 20 μM, read-out: HDAC4 percentual inhibition). Also, in assay [1], the “Histone H3 hyperacetylation (cellular class I HDAC off-target inhibition)” value was “no significant off-target inhibition of class I”.

These data come from article PMC10641818, “Development of First-in-Class Dual Sirt2/HDAC6 Inhibitors as Molecular Tools for Dual Inhibition of Tubulin Deacetylation” (Journal of Medicinal Chemistry, 2023).
